# Assay results reported in US11401278B2, “Macrocyclic indole derivatives” (The Broad Institute, Inc., priority 2017, dated 2022).
# Molecular target: MCL-1 (Homo sapiens (Human), UniProt Q07820, K194A/K197A/R201A)
# Test: Protein-protein interaction assay MCL-1/Noxa BH3 peptide (MCL-1 assay, TR-FRET)
# Type: binding
# Settings: MBP-MCL-1 / Noxa BH3 peptide, median
# In short: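 TR-FRET competition assay read at 665/620 nm, with a Noxa BH3 tracer peptide (1 nM) plus Eu-cryptate anti-MBP and XL665-streptavidin. Compounds (0.1 nM-20 μM, duplicates) were pre-equilibrated 10 min at 22° C with 1 nM MBP-MCL-1 (173-329) in Tris pH 7, NaCl, KF, DTT buffer, then incubated 1 h at 22° C and overnight at 4° C. IC50 came from 4-parameter regression.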
# Sequence of MCL-1 (Q07820 whole entry K194A/K197A/R201A, looked up): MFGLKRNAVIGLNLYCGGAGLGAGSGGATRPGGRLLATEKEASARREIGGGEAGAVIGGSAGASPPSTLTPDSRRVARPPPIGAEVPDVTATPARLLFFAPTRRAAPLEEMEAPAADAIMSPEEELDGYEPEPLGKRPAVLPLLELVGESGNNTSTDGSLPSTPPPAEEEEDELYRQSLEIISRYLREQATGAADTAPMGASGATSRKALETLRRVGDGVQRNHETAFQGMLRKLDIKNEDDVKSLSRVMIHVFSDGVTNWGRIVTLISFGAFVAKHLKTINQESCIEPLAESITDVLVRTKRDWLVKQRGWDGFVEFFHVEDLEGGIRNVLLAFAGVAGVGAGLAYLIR
row,Compound,IC50
1,"CCc1c2c(nn1C)C(CCC1CCOCC1)N(C)S(=O)(=O)CCCn1c(C(=O)O)c(CCCOc3cccc4cc(F)ccc34)c3ccc(Cl)c-2c31 (single isomer, unassigned; enantiomer 3) [Example 63, (+)-4-chloro-3-ethyl-7-{3-[(6-fluoronaphthalen-1-yl)oxy]propyl}-2,14-dimethyl-15-[2-(oxan-4-yl)ethyl]-13,13-dioxo-10,11,12,13,14,15-hexahydro-2H-13lambda^6-pyrazolo[3′,4′:4,5][1,2,8]thiadiazacycloundecino[6,7,8-hi]indole-8-carboxylic acid (Enantiomer 3)]",1.1 nM
2,"CCc1c2c(nn1C)C(CCC1CCOCC1)N(C)S(=O)(=O)CCCn1c(C(=O)O)c(CCCOc3cccc4cc(F)ccc34)c3ccc(Cl)c-2c31 (single isomer, unassigned; enantiomer 4) [Example 64, (−)-4-chloro-3-ethyl-7-{3-[(6-fluoronaphthalen-1-yl)oxy]propyl}-2,14-dimethyl-15-[2-(oxan-4-yl)ethyl]-13,13-dioxo-10,11,12,13,14,15-hexahydro-2H-13lambda^6-pyrazolo[3′,4′:4,5][1,2,8]thiadiazacycloundecino[6,7,8-hi]indole-8-carboxylic acid (Enantiomer 4)]",21 nM
3,"CCc1c2c(nn1C)CN(C)S(=O)(=O)CCCn1c(C(=O)O)c(CCCOc3cc(C)c(Cl)c(C)c3)c3ccc(Cl)c-2c31 [Example 22, (rac)-13-Chloro-1-(3-(4-chloro-3,5-dimethylphenoxy)propyl)-12-ethyl-8,11-dimethyl-4,5,6,8,9,11-hexahydropyrazolo[3′,4′:4,5][1,2,8]thiadiazacycloundecino[6,7,8-hi]indole-2-carboxylic acid 7,7-dioxide]",3.1 nM
4,"Cc1c2c(nn1C)CN(C)S(=O)(=O)CCCn1c(C(=O)O)c(CCCOc3ccc(F)c4ccccc34)c3ccc(F)c-2c31 [Example 30, (rac)-13-Fluoro-1-(34(4-fluoronaphthalen-1-yl)oxy)propyl)-8,11,12-trimethyl-5,6,9,11-tetrahydro-4H,8H-pyrazolo[3′,4′:4,5][1]thia[2,8]diazacycloundecino[6,7,8-hi]indole-2-carboxylic acid 7,7-dioxide]",5.1 nM
5,"Cc1c2c(nn1C)CN(C1CC1)S(=O)(=O)CCCn1c(C(=O)O)c(CCCOc3cccc4ccccc34)c3ccc(Cl)c-2c31 [Example 40, (rac)-4-chloro-14-cyclopropyl-2,3-dimethyl-7-[3-(1-naphthyloxy)propyl]-11,12,14,15-tetrahydro-2H,10H-pyrazolo[3′,4′:4,5][1,2,8]thiadiazacycloundecino[6,7,8-hi]indole-8-carboxylic acid 13,13-dioxide]",2.1 nM

# Next, values leading:
row,IC50,Compound
1,2.7 nM,"CCc1c2c(nn1C)CN(C)S(=O)(=O)CCCn1c(C(=O)O)c(CCCOc3cccc4ccccc34)c3ccc(Cl)c-2c31 [Example 20, (rac)-13-Chloro-12-ethyl-8,11-dimethyl-1-(3-(naphthalen-1-yloxy)propyl)-5,6,9,11-tetrahydro-4H,8H-pyrazolo[3′,4′:4,5][1]thia[2,8]diazacycloundecino[6,7,8-hi]indole-2-carboxylic acid 7,7-dioxide]"
2,1.7 nM,"CCc1c2c(nn1C)CN(C)S(=O)(=O)CCCn1c(C(=O)O)c(CCCOc3cccc4c3CCC4)c3ccc(Cl)c-2c31 [Example 21, (rac)-13-Chloro-1-(3-((2,3-dihydro-1H-inden-4-yl)oxy)propyl)-12-ethyl-8,11-dimethyl-5,6,9,11-tetrahydro-4H,8H-pyrazolo[3′,4′:4,5][1]thia[2,8]diazacycloundecino[6,7,8-hi]indole-2-carboxylic acid 7,7-dioxide]"
3,3.3 nM,"CCc1c2c(nn1C)CN(C)S(=O)(=O)CCCn1c(C(=O)O)c(CCCOc3cccc4c3CCCC4)c3ccc(Cl)c-2c31 [Example 23, (rac)-13-Chloro-12-ethyl-8,11-dimethyl-1-(3-((5,6,7,8-tetrahydronaphthalen-1-yl)oxy)propyl)-4,5,6,8,9,11-hexahydropyrazolo[3′,4′:4,5][1,2,8]thiadiazacycloundecino[6,7,8-hi]indole-2-carboxylic acid 7,7-dioxide]"
4,3.4 nM,"CCc1c2c(nn1C)CN(C)S(=O)(=O)CCCn1c(C(=O)O)c(CCCOc3ccc(F)c4ccccc34)c3ccc(Cl)c-2c31 [Example 24, (rac)-13-Chloro-12-ethyl-1-(34(4-fluoronaphthalen-1-yl)oxy)propyl)-8,11-dimethyl-4,5,6,8,9,11-hexahydropyrazolo[3′,4′:4,5][1,2,8]thiadiazacycloundecino[6,7,8-hi]indole-2-carboxylic acid 7,7-dioxide]"
5,6.2 nM,"CCc1c2c(nn1C)CN(CCN1CCOCC1)S(=O)(=O)CCCn1c(C(=O)O)c(CCCOc3cccc4cc(F)ccc34)c3ccc(Cl)c-2c31 [Example 77, (rac)-13-chloro-12-ethyl-1-(3-((6-fluoronaphthalen-1-yl)oxy)propyl)-11-methyl-8-(2-morpholinoethyl)-5,6,9,11-tetrahydro-4H,8H-pyrazolo[3′,4′:4,5][1]thia[2,8]diazacycloundecino[6,7,8-hi]indole-2-carboxylic acid 7,7-dioxide]"
